The test deals with T1, hCRTH2 (Homo sapiens, UniProt Q9Y5Y4).
T1 construct: expressed in transfected cells; host or cells: HEK (human embryonic kidney) cells expressing hCRTH2; membrane preparation
T1 sequence (Q9Y5Y4 1-395): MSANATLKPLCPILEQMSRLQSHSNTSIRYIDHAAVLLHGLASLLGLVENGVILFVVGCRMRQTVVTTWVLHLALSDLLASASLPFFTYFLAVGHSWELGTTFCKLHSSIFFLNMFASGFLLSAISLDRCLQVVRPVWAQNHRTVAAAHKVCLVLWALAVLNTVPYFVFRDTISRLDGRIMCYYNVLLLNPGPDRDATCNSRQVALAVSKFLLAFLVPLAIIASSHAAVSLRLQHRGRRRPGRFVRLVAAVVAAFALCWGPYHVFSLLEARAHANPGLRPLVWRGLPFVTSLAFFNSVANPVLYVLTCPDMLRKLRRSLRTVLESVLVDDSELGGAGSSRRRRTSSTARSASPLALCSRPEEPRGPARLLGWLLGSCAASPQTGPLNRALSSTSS
In words: Radioligand binding assay ([3H]PGD2 competition, HEK-hCRTH2 membranes). In outline: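 HEK-hCRTH2 membranes, 8-20 μg; [3H]PGD2 3.0 nM; 50 mM Tris-HCl pH 7.4/1 mM EDTA/2 mM MnCl2; DMSO 1%; 60 min RT; NSB 10 μM PGD2; filtration, scintillation counting.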

SMILES strings stand for the structures.

Where the note is “[3H]PGD2 competition, Table B”, `O=C(O)CCCCc1nc2cc(C(=O)N[C@H]3CCOc4cc(C(F)(F)F)ccc43)ccc2nc1-c1ccc(Cl)cc1` [compound 692, (S)-5-(3-(4-chlorophenyl)-7-((7-(trifluoromethyl)chroman-4-yl)carbamoyl)quinoxalin-2-yl)pentanoic acid] displayed a Ki of 2.1 to 20 nM.

For the compound `CC(C)(NC(=O)c1ccc2nc(-c3ccc(Cl)cc3)c(CCCCC(=O)O)nc2c1)c1ccc(F)cc1` [compound 693, 5-(3-(4-chlorophenyl)-7-((2-(4-fluorophenyl)propan-2-yl)carbamoyl)quinoxalin-2-yl)pentanoic acid], where the note is “[3H]PGD2 competition, Table B”, the Ki is 2.1 to 20 nM.

For the compound `O=C(O)CCCCc1nc2cc(C(=O)NC3CCOc4c(F)cc(F)cc43)ccc2nc1-c1ccc(Cl)cc1` (stereo not drawn) [compound 694, 5-(3-(4-chlorophenyl)-7-((6,8-difluorochroman-4-yl)carbamoyl)quinoxalin-2-yl)pentanoic acid], the Ki ([3H]PGD2 competition, Table B) was in the range of 2.1 to 20 nM.

As to `CN1C(=O)c2ccccc2C12CCN(C(=O)c1ccc3nc(-c4ccc(Cl)cc4)c(CCCCC(=O)O)nc3c1)CC2` [compound 695, 5-(3-(4-chlorophenyl)-7-(2-methyl-3-oxospiro[isoindoline-1,4′-piperidin]-1′-ylcarbonyl)quinoxalin-2-yl)pentanoic acid], the Ki ([3H]PGD2 competition, Table B) lay within 2.1 to 20 nM.

Compound `CC1(C)Oc2ccccc2C(NC(=O)c2ccc3nc(-c4ccc(Cl)cc4)c(CCCCC(=O)O)nc3c2)C1O` (stereo not drawn) [compound 696, 5-(3-(4-chlorophenyl)-7-((3-hydroxy-2,2-dimethylchroman-4-yl)carbamoyl)quinoxalin-2-yl)pentanoic acid] returned a Ki ([3H]PGD2 competition, Table B) of 2.1 to 20 nM.

On to `CS(=O)(=O)c1ccccc1N1CCN(C(=O)c2ccc3nc(-c4ccc(Cl)cc4)c(CCCCC(=O)O)nc3c2)CC1` [compound 697, 5-(3-(4-chlorophenyl)-7-(4-(2-(methylsulfonyl)phenyl)piperazine-1-carbonyl)quinoxalin-2-yl)pentanoic acid], for which, for the setting “[3H]PGD2 competition, Table B”, the Ki was in the range of 2.1 to 20 nM.

In the case of `O=C(O)CCCCc1nc2cc(C(=O)N3C[C@H]4CC[C@@H]3CN4Cc3ccccc3)ccc2nc1-c1ccc(Cl)cc1` [compound 698, 5-(7-((1R,4R)-5-benzyl-2,5-diazabicyc1o[2.2.2]octane-2-carbonyl)-3-(4-chlorophenyl)quinoxalin-2-yl)pentanoic acid], for the setting “[3H]PGD2 competition, Table B”, the Ki lay in the range of 2.1 to 20 nM.

For `O=C(O)CCCCc1nc2cc(C(=O)N3C[C@H]4C[C@@H]3CN4C(=O)OCc3ccccc3)ccc2nc1-c1ccc(Cl)cc1` [compound 699, 5-(7-((1R,4R)-5-((benzyloxy)carbonyl)-2,5-diazabicyclo[2.2.1]heptane-2-carbonyl)-3-(4-chlorophenyl)quinoxalin-2-yl)pentanoic acid], the Ki ([3H]PGD2 competition, Table B) was in the range of 2.1 to 20 nM.

Regarding `Cc1nc(N2CCN(C(=O)c3ccc4nc(-c5ccc(Cl)cc5)c(CCCCC(=O)O)nc4c3)CC2)cn1C` [compound 700, 5-(3-(4-chlorophenyl)-7-(4-(1,2-dimethyl-1H-imidazol-4-yl)piperazine-1-carbonyl)quinoxalin-2-yl)pentanoic acid], the Ki ([3H]PGD2 competition, Table B) lay within 20.1 to 200 nM.

Regarding `O=C(O)CCCCc1nc2cc(C(=O)N3CCN(c4nc5ccccc5o4)CC3)ccc2nc1-c1ccc(Cl)cc1` [compound 701, 5-(7-(4-(benzo[d]oxazol-2-yl)piperazine-1-carbonyl)-3-(4-chlorophenyl)quinoxalin-2-yl)pentanoic acid], the Ki ([3H]PGD2 competition, Table B) lay in the range of 2.1 to 20 nM.

`O=C(O)CCCCc1nc2cc(C(=O)N3[C@@H]4CC[C@H]3CN(Cc3ccccc3)C4)ccc2nc1-c1ccc(Cl)cc1` [compound 702] displayed a Ki ([3H]PGD2 competition, Table B) of 2.1 to 20 nM.

As to `Cc1cc(N2CCN(C(=O)c3ccc4nc(-c5ccc(Cl)cc5)c(CCCCC(=O)O)nc4c3)CC2)cc(C)n1` [compound 703, 5-(3-(4-chlorophenyl)-7-(4-(2,6-dimethylpyridin-4-yl)piperazine-1-carbonyl)quinoxalin-2-yl)pentanoic acid], for the setting “[3H]PGD2 competition, Table B”, the Ki lay within 201 to 700 nM.

`O=C(O)CCCCc1nc2cc(C(=O)N3C[C@H]4CC[C@@H](C3)N4Cc3ccccc3)ccc2nc1-c1ccc(Cl)cc1` [compound 704, 5-(7-((1R,5S)-8-benzyl-3,8-diazabicyclo[3.2.1]octane-3-carbonyl)-3-(4-chlorophenyl)quinoxalin-2-yl)pentanoic acid] had a Ki ([3H]PGD2 competition, Table B) of 2.1 to 20 nM.

As to `O=C(O)CCCCc1nc2cc(C(=O)N3CCn4ccnc4C3)ccc2nc1-c1ccc(Cl)cc1` [compound 705, 5-(3-(4-chlorophenyl)-7-(5,6,7,8-tetrahydroimidazo[1,2-a]pyrazine-7-carbonyl)quinoxalin-2-yl)pentanoic acid], under “[3H]PGD2 competition, Table B”, the Ki lay in the range of 201 to 700 nM.

In turn, `O=C(N[C@@H]1CCCc2ccccc21)c1ccc2nc(-c3ccccc3)c(CCCC(O)C(=O)O)nc2c1` (stereo partly drawn) [compound 706, 2-hydroxy-5-(3-phenyl-7-(((R)-1,2,3,4-tetrahydronaphthalen-1-yl)carbamoyl)quinoxalin-2-yl)pentanoic acid] had a Ki ([3H]PGD2 competition, Table B) of 201 to 700 nM.

On to `CC1(C)CCC(NC(=O)c2ccc3nc(-c4ccccc4)c(CCCCC(=O)O)nc3c2)c2ccccc21` (stereo not drawn) [compound 707, 5-(7-((4,4-dimethyl-1,2,3,4-tetrahydronaphthalen-1-yl)carbamoyl)-3-phenylquinoxalin-2-yl)pentatioic acid], for which, under “[3H]PGD2 competition, Table B”, the Ki is 2.1 to 20 nM.

With `O=C(O)CCCCc1nc2cc(C(=O)N[C@H]3CCS(=O)(=O)c4ccccc43)ccc2nc1-c1ccc(F)cc1` [compound 709, (S)-5-(7-((1,1-dioxidothiochroman-4-yl)carbamoyl)-3-(4-fluorophenyl)quinoxalin-2-yl)pentanoic acid], the Ki runs as follows: ([3H]PGD2 binding, values in text) 18.4 nM; ([3H]PGD2 competition, Table B) 2.1 to 20 nM.

Take `O=C(O)CCCCc1nc2cc(C(=O)N[C@H]3CC(=O)Nc4ccccc43)ccc2nc1-c1ccccc1` [compound 710, (S)-5-(7-((2-oxo-1,2,3,4-tetrahydroquinolin-4-yl)carbamoyl)-3-phenylquinoxalin-2-yl)pentanoic acid]: under “[3H]PGD2 competition, Table B”, the Ki fell in the range of 20.1 to 200 nM.

For `O=C(O)CCCCc1nc2cc(C(=O)N[C@@H]3CC(=O)Nc4ccccc43)ccc2nc1-c1ccccc1` [compound 711, (R)-5-(7-((2-oxo-1,2,3,4-tetrahydroquinolin-4-yl)carbamoyl)-3-phenylquinoxalin-2-yl)pentanoic acid], where the note is “[3H]PGD2 competition, Table B”, the Ki was in the range of 2.1 to 20 nM.

`O=C(O)CCCCc1nc2cc(C(=O)N[C@H]3CC(=O)Nc4ccc(F)cc43)ccc2nc1-c1ccccc1` [compound 712, (S)-5-(7-((6-fluoro-2-oxo-1,2,3,4-tetrahydroquinolin-4-yl)carbamoyl)-3-phenylquinoxalin-2-yl)pentanoic acid] displayed a Ki ([3H]PGD2 competition, Table B) of 20.1 to 200 nM.

For `O=C(O)CCCCc1nc2cc(C(=O)N[C@@H]3CC(=O)Nc4ccc(F)cc43)ccc2nc1-c1ccccc1` [compound 713, (R)-5-(7-((6-fluoro-2-oxo-1,2,3,4-tetrahydroquinolin-4-yl)carbamoyl)-3-phenylquinoxalin-2-yl)pentanoic acid], the Ki ([3H]PGD2 competition, Table B) fell in the range of 2.1 to 20 nM.

Take `O=C(O)CCCCc1nc2cc(C(=O)N[C@H]3CCS(=O)(=O)c4ccccc43)ccc2nc1-c1ccccc1` [compound 714, (S)-5-(7-((1,1-dioxidothiochroman-4-yl)carbamoyl)-3-phenylquinoxalin-2-yl)pentanoic acid]: where the note is “[3H]PGD2 competition, Table B”, the Ki lay within 20.1 to 200 nM.

Consider `O=C(O)CCCCc1nc2cc(C(=O)N[C@@H]3CCS(=O)(=O)c4ccccc43)ccc2nc1-c1ccccc1` [compound 715, (R)-5-(7-((1,1-dioxidothiochroman-4-yl)carbamoyl)-3-phenylquinoxalin-2-yl)pentanoic acid], for which the Ki ([3H]PGD2 competition, Table B) fell in the range of 2.1 to 20 nM.

The compound `O=C(O)CCCCc1nc2cc(C(=O)N[C@@H]3CCCc4ccccc43)c(F)cc2nc1-c1ccccc1` [compound 716, (R)-5-(6-fluoro-3-phenyl-7-((1,2,3,4-tetrahydro-naphthalen-1-yl)carbamoyl)quinoxalin-2-yl)pentanoic acid] yielded a Ki ([3H]PGD2 competition, Table B) of 2.1 to 20 nM.

As to `O=C(O)CCCCc1nc2cc(C(=O)N[C@@H]3CCCc4ccccc43)c(F)cc2nc1-c1ccc(F)cc1` [compound 717, (R)-5-(6-fluoro-3-(4-fluorophenyl)-7-((1,2,3,4-tetrahydronaphthalen-1-yl)carbamoyl)quinoxalin-2-yl)pentanoic acid], the Ki ([3H]PGD2 competition, Table B) fell in the range of 2.1 to 20 nM.

In turn, `O=C(O)CCCCc1nc2cc(C(=O)N[C@@H]3CCCc4ccccc43)c(F)cc2nc1-c1ccc(Cl)cc1` [compound 718, (R)-5-(3-(4-chlorophenyl)-6-fluoro-7-((1,2,3,4-tetrahydronaphthalen-1-yl)carbamoyl)quinoxalin-2-yl)pentanoic acid] registered a Ki ([3H]PGD2 competition, Table B) of 2.1 to 20 nM.

Under “[3H]PGD2 competition, Table B”, `O=C(O)CCCCc1nc2cc(C(=O)N3C4C=C(c5ccccc5)CC3CC4)ccc2nc1-c1ccccc1` (stereo not drawn) [compound 719, 5-(3-phenyl-7-(3-phenyl-8-azabicyclo[3.2.1]oct-2-ene-8-carbonyl)quinoxalin-2-yl)pentanoic acid] displayed a Ki of 2.1 to 20 nM.

With `O=C(O)CCCCc1nc2cc(C(=O)N[C@@H]3CCOc4cc(C(F)(F)F)ccc43)ccc2nc1-c1ccc(Cl)cc1` [compound 720, (R)-5-(3-(4-chlorophenyl)-7-((7-(trifluoromethyl)chroman-4-yl)carbamoyl)quinoxalin-2-yl)pentanoic acid], where the note is “[3H]PGD2 competition, Table B”, the Ki was in the range of 2.1 to 20 nM.

The compound `CC1(C)CC[C@H](NC(=O)c2ccc3nc(-c4ccccc4)c(CCCCC(=O)O)nc3c2)c2ccccc21` [compound 721, (S)-5-(7-((4,4-dimethyl-1,2,3,4-tetrahydronaphthalen-1-yl)carbamoyl)-3-phenylquinoxalin-2-yl)pentanoic acid] returned a Ki ([3H]PGD2 competition, Table B) of 2.1 to 20 nM.

Source of the values: patent publication US9469615B2, “Quinoxalines and AZA-quinoxalines as CRTH2 receptor modulators” (Merck Sharp & Dohme Corp., priority 2010, dated 2016).
